Data set [1] concerns the target T1, Prolyl 4-hydroxylase (Paramecium bursaria Chlorella virus 1, UniProt Q84406).
T1 sequence (Q84406 whole entry): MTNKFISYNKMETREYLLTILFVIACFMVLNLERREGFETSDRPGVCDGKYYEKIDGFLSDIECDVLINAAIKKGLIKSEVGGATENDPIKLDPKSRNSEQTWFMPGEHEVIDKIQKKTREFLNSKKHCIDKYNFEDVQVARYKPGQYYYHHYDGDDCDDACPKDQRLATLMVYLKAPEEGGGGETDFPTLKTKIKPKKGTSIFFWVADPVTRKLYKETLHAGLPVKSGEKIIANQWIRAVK
Nature of the data set: Inhibition of N-terminal His6-tagged recombinant Paramecium bursaria chlorella virus 1 CPH expressed in Escherichia coli Rosetta 2 (DE3) cells pre-incubated for 5 mins before 2OG as substrate and Fe2 as co-factor addition in presence of L-ascorbate and measured after 5 mins MALDI TOF MS analysis.

Data set [2] has as its target Egl nine homolog 1 (Homo sapiens, UniProt Q9GZT9). As to the kind of experiment: Inhibition of recombinant human PHD2 by alphascreen assay. A general note: Bead proximity is the source of the signal in Alpha formats.
Data set [3] deals with T2, Prolyl 4-hydroxylase (Paramecium bursaria Chlorella virus 1) (UniProt Q84406).
T2 sequence (whole entry): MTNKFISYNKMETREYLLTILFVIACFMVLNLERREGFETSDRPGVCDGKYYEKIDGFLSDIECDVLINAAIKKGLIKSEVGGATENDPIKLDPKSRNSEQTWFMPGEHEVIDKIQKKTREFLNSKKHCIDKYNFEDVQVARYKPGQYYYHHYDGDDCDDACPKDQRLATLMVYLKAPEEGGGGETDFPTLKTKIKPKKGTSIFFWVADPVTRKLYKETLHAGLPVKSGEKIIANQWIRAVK
Nature of the data set: Substrate activity at N-terminal His6-tagged recombinant Paramecium bursaria chlorella virus 1 CPH expressed in Escherichia coli Rosetta 2 (DE3) cells assessed as succinate production at 500 uM incubated for 60 s in presence of 2OG and using Fe2 as cofactor by 1H NMR spectroscopy.

Data set [4] deals with T2, Prolyl 4-hydroxylase (Paramecium bursaria Chlorella virus 1). Nature of the data set: Substrate activity at N-terminal His6-tagged recombinant Paramecium bursaria chlorella virus 1 CPH expressed in Escherichia coli Rosetta 2 (DE3) cells assessed as substrate hydroxylation incubated for 16 hrs in presence of 2OG and in absence of L-ascorbate by MALDI TOF MS analysis.
Data set [5] has the same target. As to the kind of experiment: Substrate activity at N-terminal His6-tagged recombinant Paramecium bursaria chlorella virus 1 CPH expressed in Escherichia coli Rosetta 2 (DE3) cells assessed as substrate hydroxylation at 100 uM incubated for 16 hrs in presence of 2OG by MALDI TOF MS analysis.
Data set [6] shares this target. As to the kind of experiment: Substrate activity at N-terminal His6-tagged recombinant Paramecium bursaria chlorella virus 1 CPH expressed in Escherichia coli Rosetta 2 (DE3) cells assessed as succinate production at 500 uM incubated for 60 s in presence of 2OG and L-ascorbate and using Fe2 as cofactor by 1H NMR spectroscopy.
Data set [7] shares this target. Nature of the data set: Substrate activity at N-terminal His6-tagged recombinant Paramecium bursaria chlorella virus 1 CPH expressed in Escherichia coli Rosetta 2 (DE3) cells assessed as succinate production at 500 uM incubated for 60 s in presence of 2OG and in absence of L-ascorbate and using Fe2 as cofactor by 1H NMR spectroscopy.
For data set [8] the target is unchanged. As to the kind of experiment: Substrate activity at N-terminal His6-tagged recombinant Paramecium bursaria chlorella virus 1 CPH expressed in Escherichia coli Rosetta 2 (DE3) cells assessed as substrate hydroxylation up to 1 mM incubated for 16 hrs in presence of 2OG by MALDI TOF MS analysis.
Data set [9] deals with Hypoxia-inducible factor 1-alpha inhibitor (Homo sapiens, UniProt Q9NWT6). As to the kind of experiment: Inhibition of recombinant human FIH using 2OG as substrate and Fe2 as co-factor assessed as hydroxylation incubated for 15 mins in presence of L-ascorbate by LC-MS analysis.
The target of data set [10] is T3, Prolyl 3-hydroxylase OGFOD1 (Homo sapiens, UniProt Q8N543).
T3 sequence (Q8N543 whole entry): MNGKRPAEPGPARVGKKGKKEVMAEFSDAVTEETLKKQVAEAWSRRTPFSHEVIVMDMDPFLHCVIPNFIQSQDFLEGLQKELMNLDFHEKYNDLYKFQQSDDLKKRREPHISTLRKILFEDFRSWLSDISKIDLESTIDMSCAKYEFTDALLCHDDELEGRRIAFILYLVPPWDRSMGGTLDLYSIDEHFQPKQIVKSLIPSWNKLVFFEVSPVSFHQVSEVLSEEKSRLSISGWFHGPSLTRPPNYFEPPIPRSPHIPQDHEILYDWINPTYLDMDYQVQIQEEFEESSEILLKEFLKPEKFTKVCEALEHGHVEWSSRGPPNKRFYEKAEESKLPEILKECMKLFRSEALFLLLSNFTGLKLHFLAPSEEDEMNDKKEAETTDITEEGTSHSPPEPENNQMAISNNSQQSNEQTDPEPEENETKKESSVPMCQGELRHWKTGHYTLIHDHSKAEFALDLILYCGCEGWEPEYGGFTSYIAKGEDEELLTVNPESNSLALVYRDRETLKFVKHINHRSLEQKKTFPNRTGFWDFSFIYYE
As to the kind of experiment: Inhibition of recombinant human OGFOD1 using 2OG as substrate and Fe2 as co-factor assessed as hydroxylation incubated for 15 mins in presence of L-ascorbate by MALDI-TOF MS analysis.

Compound in data set [11]: C[C@H](NC(=O)[C@@H]1CCCN1)C(=O)N1C[C@H](O)C[C@H]1C(=O)N[C@@H](CCCCN)C(=O)N1CCC[C@H]1C(=O)N[C@@H](C)C(=O)N1CCC[C@H]1C(=O)N[C@@H](CCCCN)C(=O)O
As to the kind of experiment: (§1) Substrate activity at N-terminal His6-tagged recombinant Paramecium bursaria chlorella virus 1 CPH expressed in Escherichia coli Rosetta 2 (DE3) cells assessed as Km(app) for Fe2 incubated for 16 hrs in presence of 2OG and Fe2 by MALDI TOF MS analysis.

Compound in data set [12]: C[C@H](NC(=O)[C@@H]1CCCN1)C(=O)N1CCC[C@H]1C(=O)N[C@@H](CCCCN)C(=O)N1C[C@H](O)C[C@H]1C(=O)N[C@@H](C)C(=O)N1CCC[C@H]1C(=O)N[C@@H](CCCCN)C(=O)O
The description is as §1.

Compound in data set [13]: C[C@H](NC(=O)[C@@H]1CCCN1)C(=O)N1CCC[C@H]1C(=O)N[C@@H](CCCCN)C(=O)N1C[C@H](O)C[C@H]1C(=O)N[C@@H](C)C(=O)N1CCC[C@H]1C(=O)N[C@@H](CCCCN)C(=O)O
Nature of the data set: Substrate activity at N-terminal His6-tagged recombinant Paramecium bursaria chlorella virus 1 CPH expressed in Escherichia coli Rosetta 2 (DE3) cells assessed as substrate Kcat incubated for 16 hrs in presence of 2OG by MALDI TOF MS analysis.

Compound in data set [14]: C[C@H](NC(=O)[C@@H]1CCCN1)C(=O)N1C[C@H](O)C[C@H]1C(=O)N[C@@H](CCCCN)C(=O)N1CCC[C@H]1C(=O)N[C@@H](C)C(=O)N1CCC[C@H]1C(=O)N[C@@H](CCCCN)C(=O)O
Nature of the data set: (§2) Substrate activity at N-terminal His6-tagged recombinant Paramecium bursaria chlorella virus 1 CPH expressed in Escherichia coli Rosetta 2 (DE3) cells assessed as Km for 2OG incubated for 16 hrs in presence of 2OG and Fe2 by MALDI TOF MS analysis.

Compound in data set [15]: C[C@H](NC(=O)[C@@H]1CCCN1)C(=O)N1CCC[C@H]1C(=O)N[C@@H](CCCCN)C(=O)N1C[C@H](O)C[C@H]1C(=O)N[C@@H](C)C(=O)N1CCC[C@H]1C(=O)N[C@@H](CCCCN)C(=O)O
The data set is described as §2.

Compound in data set [16]: C[C@H](NC(=O)[C@@H]1CCCN1)C(=O)N1CCC[C@H]1C(=O)N[C@@H](CCCCN)C(=O)N1C[C@H](O)C[C@H]1C(=O)N[C@@H](C)C(=O)N1CCC[C@H]1C(=O)N[C@@H](CCCCN)C(=O)O
Nature of the data set: Substrate activity at N-terminal His6-tagged recombinant Paramecium bursaria chlorella virus 1 CPH expressed in Escherichia coli Rosetta 2 (DE3) cells assessed as substrate Km incubated for 16 hrs in presence of 2OG by MALDI TOF MS analysis.

Compound in data set [17]: C[C@H](NC(=O)[C@@H]1CCCN1)C(=O)N1C[C@H](O)C[C@H]1C(=O)N[C@@H](CCCCN)C(=O)N1CCC[C@H]1C(=O)N[C@@H](C)C(=O)N1CCC[C@H]1C(=O)N[C@@H](CCCCN)C(=O)O
Nature of the data set: (§3) Substrate activity at N-terminal His6-tagged recombinant Paramecium bursaria chlorella virus 1 CPH expressed in Escherichia coli Rosetta 2 (DE3) cells assessed as Km(app) for ascorbate incubated for 16 hrs in presence of ascorbate, 2OG and Fe2 by MALDI TOF MS analysis.

Compound in data set [18]: C[C@H](NC(=O)[C@@H]1CCCN1)C(=O)N1CCC[C@H]1C(=O)N[C@@H](CCCCN)C(=O)N1C[C@H](O)C[C@H]1C(=O)N[C@@H](C)C(=O)N1CCC[C@H]1C(=O)N[C@@H](CCCCN)C(=O)O
Described as §3.

Experimental findings from ChEMBL document CHEMBL4340506, “Inhibition of a viral prolyl hydroxylase” (Bioorg Med Chem, 2019) are described below.

Activity calls are given as the source filed them. The calls are words filed in the database; no cut-off is given here. Where a SMILES comes first, the peptide text is derived from it. [ ]: non-standard residue; d: D form. Hyp = O=C(O)[C@@H]1C[C@@H](O)CN1

Chain of Hypoxia-inducible factor 1-alpha inhibitor (Q9NWT6 whole entry): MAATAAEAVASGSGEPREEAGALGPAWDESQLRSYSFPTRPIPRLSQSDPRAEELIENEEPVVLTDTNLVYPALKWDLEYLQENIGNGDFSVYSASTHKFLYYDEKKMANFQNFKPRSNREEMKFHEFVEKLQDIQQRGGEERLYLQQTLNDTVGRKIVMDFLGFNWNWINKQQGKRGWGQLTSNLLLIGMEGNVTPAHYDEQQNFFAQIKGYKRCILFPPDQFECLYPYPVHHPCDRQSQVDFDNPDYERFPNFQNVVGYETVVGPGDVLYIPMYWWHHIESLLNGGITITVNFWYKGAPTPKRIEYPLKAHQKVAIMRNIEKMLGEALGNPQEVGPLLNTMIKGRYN
Chain of Egl nine homolog 1 (Q9GZT9 whole entry): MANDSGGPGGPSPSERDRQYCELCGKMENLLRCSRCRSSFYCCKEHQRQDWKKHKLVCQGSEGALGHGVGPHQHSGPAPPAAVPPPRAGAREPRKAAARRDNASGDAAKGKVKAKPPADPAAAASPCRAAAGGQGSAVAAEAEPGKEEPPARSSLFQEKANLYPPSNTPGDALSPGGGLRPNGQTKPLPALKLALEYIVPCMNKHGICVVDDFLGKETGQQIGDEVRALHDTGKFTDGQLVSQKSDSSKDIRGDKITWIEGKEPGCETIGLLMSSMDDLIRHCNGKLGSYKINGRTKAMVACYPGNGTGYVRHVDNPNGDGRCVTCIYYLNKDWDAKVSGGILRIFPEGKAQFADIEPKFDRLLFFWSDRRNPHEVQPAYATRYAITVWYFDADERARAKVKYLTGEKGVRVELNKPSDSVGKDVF

In general, IC50 refers to the concentration needed to halve the response being measured. In the case of `O=C(O)CNC(=O)c1c(O)c2ccccc2n(Cc2ccccc2)c1=O`, the IC50 in data set [1] worked out at 8.5 µM; in data set [2] it was 0.022 µM.
For the molecule H-PAPKPAPK-OH, the outcome in data set [3] was Active. Besides, the result in data set [4] was inactive.
`C[C@H](NC(=O)[C@@H]1CCCN1)C(=O)N1C[C@H](O)C[C@H]1C(=O)N[C@@H](CCCCN)C(=O)N1CCC[C@H]1C(=O)N[C@@H](C)C(=O)N1CCC[C@H]1C(=O)N[C@@H](CCCCN)C(=O)O` (H-PA[Hyp]KPAPK-OH): the result in data set [5], in data set [7] and in [8] was inactive. In addition, the result in data set [6] was Active.
As to `C[C@H](NC(=O)[C@@H]1CCCN1)C(=O)N1CCC[C@H]1C(=O)N[C@@H](CCCCN)C(=O)N1C[C@H](O)C[C@H]1C(=O)N[C@@H](C)C(=O)N1CCC[C@H]1C(=O)N[C@@H](CCCCN)C(=O)O` (H-PAPK[Hyp]APK-OH), the outcome in data set [6] and in data set [7] was Active.
A word on the Ki: it is the equilibrium dissociation constant of an inhibitor or competing ligand from its target. In the case of `Cc1nc(C(=O)NCC(=O)O)c(O)c2ccc(Oc3ccccc3)cc12` [ROXADUSTAT], the figures for the IC50 in data set [1], in data set [9] and in data set [10] were 5 µM, > 100 µM and < 1 µM, respectively. Further, the Ki in data set [1] was determined as 1.07 µM.
As to `O=c1c(-n2ccnn2)c[nH]n1-c1cc(N2CCOCC2)ncn1` [MOLIDUSTAT], the IC50 is 26.8 µM in data set [1], 31 µM in [9] and < 1 µM in [10]. Further, the inhibitory constant (Ki) in data set [1] amounted to 16.1 µM.

B1: Prolyl 4-hydroxylase (Paramecium bursaria Chlorella virus 1), Q84406 (protein)
chain: MTNKFISYNKMETREYLLTILFVIACFMVLNLERREGFETSDRPGVCDGKYYEKIDGFLSDIECDVLINAAIKKGLIKSEVGGATENDPIKLDPKSRNSEQTWFMPGEHEVIDKIQKKTREFLNSKKHCIDKYNFEDVQVARYKPGQYYYHHYDGDDCDDACPKDQRLATLMVYLKAPEEGGGGETDFPTLKTKIKPKKGTSIFFWVADPVTRKLYKETLHAGLPVKSGEKIIANQWIRAVK
For orientation: Km means the concentration of substrate that gives half-maximal velocity. For orientation: kcat means the number of substrate molecules converted per active site and unit of time at saturation. Regarding B1, the Km in data set [11] was found to be 0.9 µM; in [12], 1.1 µM; in [14] it was 29.5 µM; in data set [15], 27.4 µM; in [16], 230 µM; in [17], 1.7 µM. The Km in data set [18] was 13.8 µM. Besides, in data set [13], the kcat was 52.1 s⁻¹.
